In test [1] the target is anti-cotinine antibody (SEQ ID NO: 11/12, rabbit variable region with human IgG1 Fc DE mutation). The experiment in a line: SPR binding of anti-cotinine antibody to ARM compounds, Biacore T200, 37° C. (Example 202). As to conditions: SPR Biacore T200, 37° C., pH 7.4, antibody SEQ ID NO: 11/12 captured on protein A; Kd in molar. In a few lines:
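Antibody captured on a protein A chip; ARM compounds injected at 100 μL/min (200 s association, 2000 s dissociation), 3-fold 5-point series from 200 nM, at 37 °C in HEPES pH 7.4 buffer with 0.005% P20 and 1% DMSO. Double-referenced sensorgrams fit 1:1 for kon, koff, Kd (koff/kon), residence time (1/koff); pKd averaged across runs.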
On the technique in general: SPR reads the build-up and loss of mass on a sensor chip optically.

Test [2] relates to endogenous target monocytes in human PBMC. Put plainly: PBMC ex vivo monocyte depletion flow cytometry assay (Example 200). The test is classed as cell-based. As to conditions: with anti-cotinine antibody (SEQ ID NO: 11/12), 18-24 hours, EC50 in molar, read-out: Ex Vivo Depletion Assay pEC50 (converted). In a few lines:
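Monocyte depletion is reported as pEC50, averaged or given individually across runs, and read by flow cytometry staining CD45, CD14 and CD4 with a viability dye. Compounds, diluted four-fold over 11 points from 1 mM DMSO stocks, were combined with 30 μg/mL Fc-enhanced anti-cotinine antibody and human PBMC, then incubated 18-24 h at 37° C.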
Background: Flow cytometry measures light scatter and fluorescence of single cells or particles in a stream.

Test [3] deals with CCR2 expressing cells (CD11b+Ly6c+Hi) in peripheral blood. The experiment in a line: In vivo depletion assay, flow cytometry of peripheral blood (Example 201). Details: species or system human CCR2 knock-in mice (C57 background). Conditions: hCCR2 knock-in mice, IV 0.1 mpk compound + 10 mpk anti-cotinine antibody (SEQ ID NO: 13/14), peripheral blood at 48 hr. In a few lines:
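Mice dosed with compound formulated in saline/DMSO/PBS, with anti-cotinine antibody (rabbit variable region, mouse IgG2a Fc) where required, pre-incubated 30 min at room temperature. Terminal peripheral blood RBC-lysed, Fc-blocked, stained for CD45, CD3, CD11b, Ly6C, human CCR2 and 7AAD; percent depletion of CD11b+Ly6c+Hi cells determined by flow cytometry.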

The structures appear in SMILES notation.

In the case of `CN1C(=O)C[C@H](C(=O)NCCO[C@H]2CC[C@@H](OCCCC(=O)N[C@H]3CC[C@H](C(=O)N[C@@H]4C[C@H](NC(C)(C)C)CC[C@@H]4N4CC[C@H](Nc5ncnc6ccc(C(F)(F)F)cc56)C4=O)CC3)CC2)[C@H]1c1cccnc1` [Example 2, (2S,3S)-N-(2-(((1S,4R)-4-(4-(((1R,4R)-4-(((1R,2S,5R)-5-(tert-Butylamino)-2-((S)-2-oxo-3-((6-(trifluoromethyl)quinazolin-4-yl)amino)pyrrolidin-1-yl)cyclohexyl)carbamoyl)cyclohexyl)amino)-4-oxobutoxy)cyclohexyl)oxy)ethyl)-1-methyl-5-oxo-2-(pyridin-3-yl)pyrrolidine-3-carboxamide], in test [1], the “pKd of Antibody for ARM Compound of Formula (I)” value (from here on “pKd of Antibody”) turned out to be 9.4775. Besides, the EC50 in test [2] is 0.398 nM. For the same compound, in test [3], the “% Depletion of CCR2 expressing cells” value was found to be 92.3%.
For the compound `CC(C)N(C)[C@@H]1CC[C@H](N2CC[C@H](Nc3ncnc4ccc(C(F)(F)F)cc34)C2=O)[C@H](NC(=O)[C@H]2CC[C@@H](NC(=O)CCCO[C@H]3CC[C@@H](OCCNC(=O)[C@H]4CC(=O)N(C)[C@@H]4c4cccnc4)CC3)CC2)C1` [Example 3, (2S,3S)-N-(2-(((1S,4R)-4-(4-(((1S,4S)-4-(((1R,2S,5R)-5-(Isopropyl(methyl)amino)-2-((S)-2-oxo-3-((6-(trifluoromethyl)quinazolin-4-yl)amino)pyrrolidin-1-yl)cyclohexyl)carbamoyl)cyclohexyl)amino)-4-oxobutoxy)cyclohexyl)oxy)ethyl)-1-methyl-5-oxo-2-(pyridin-3-yl)pyrrolidine-3-carboxamide], the “pKd of Antibody” value in test [1] is 9.2795. Moreover, in test [2], the EC50 is 0.501 nM. Moreover, the “% Depletion of CCR2 expressing cells” value in test [3] is reported as 87%.
For the compound `CC(C)N(C)[C@@H]1CC[C@H](N2CC[C@H](Nc3ncnc4ccc(C(F)(F)F)cc34)C2=O)[C@H](NC(=O)[C@H]2CC[C@H](NC(=O)CCCO[C@H]3CC[C@@H](OCCNC(=O)[C@H]4CC(=O)N(C)[C@@H]4c4cccnc4)CC3)CC2)C1` [Example 4, (2S,3S)-N-(2-(((1S,4R)-4-(4-(((1R,4R)-4-(((1R,2S,5R)-5-(Isopropyl(methyl)amino)-2-((S)-2-oxo-3-((6-(trifluoromethyl)quinazolin-4-yl)amino)pyrrolidin-1-yl)cyclohexyl)carbamoyl)cyclohexyl)amino)-4-oxobutoxy)cyclohexyl)oxy)ethyl)-1-methyl-5-oxo-2-(pyridin-3-yl)pyrrolidine-3-carboxamide], the “pKd of Antibody” value in test [1] came to 9.526. Further, in test [2], the EC50 was 1 nM. Also, in test [3], the “% Depletion of CCR2 expressing cells” value came out at 78.8%.
For the compound `CC(C)N(C)[C@@H]1CC[C@H](N2CC[C@H](Nc3ncnc4ccc(C(F)(F)F)cc34)C2=O)[C@H](NC(=O)CCOCCNC(=O)CCCO[C@H]2CC[C@@H](OCCNC(=O)[C@H]3CC(=O)N(C)[C@@H]3c3cccnc3)CC2)C1` [Example 6, (2S,3S)-N-(2-(((1s,4R)-4-(4-((2-(3-(((1R,2S,5R)-5-(Isopropyl(methyl)amino)-2-((S)-2-oxo-3-((6-(trifluoromethyl)quinazolin-4-yl)amino)pyrrolidin-1-yl)cyclohexyl)amino)-3-oxopropoxy)ethyl)amino)-4-oxobutoxy)cyclohexyl)oxy)ethyl)-1-methyl-5-oxo-2-(pyridin-3-yl)pyrrolidine-3-carboxamide], the “pKd of Antibody” value in test [1] was 9.282. In test [2], the EC50 is 0.2 nM. In addition, the “% Depletion of CCR2 expressing cells” value in test [3] is on record as 82%.
Turning to `CC(C)N(C)[C@@H]1CC[C@H](N2CC[C@H](Nc3ncnc4ccc(C(F)(F)F)cc34)C2=O)[C@H](NC(=O)[C@H]2CC[C@H](NC(=O)CCCO[C@H]3CC[C@H](OCCNC(=O)[C@H]4CC(=O)N(C5CC5)[C@@H]4c4cccnc4)CC3)CC2)C1` [Example 13, (2S,3S)-1-cyclopropyl-N-(2-(((1R,4S)-4-(4-(((1R,4R)-4-(((1R,2S,5R)-5-(isopropyl(methyl)amino)-2-((S)-2-oxo-3-((6-(trifluoromethyl)quinazolin-4-yl)amino)pyrrolidin-1-yl)cyclohexyl)carbamoyl)cyclohexyl)amino)-4-oxobutoxy)cyclohexyl)oxy)ethyl)-5-oxo-2-(pyridin-3-yl)pyrrolidine-3-carboxamide], in test [1], the “pKd of Antibody” value is listed as 10.511. In addition, in test [3], the “% Depletion of CCR2 expressing cells” value is recorded as 96.07%.
For the compound `CC(C)N(C)[C@@H]1CC[C@H](N2CC[C@H](Nc3ncnc4ccc(C(F)(F)F)cc34)C2=O)[C@H](NC(=O)[C@H]2CC[C@H](CNC(=O)CCCC(=O)NCCCOCCCNC(=O)[C@H]3CC(=O)N(C)[C@@H]3c3cccnc3)CC2)C1` [Example 20, N1-(((1R,4r)-4-(((1R,2S,5R)-5-(Isopropyl(methyl)amino)-2-((S)-2-oxo-3-((6-(trifluoromethyl)quinazolin-4-yl)amino)pyrrolidin-1-yl)cyclohexyl)carbamoyl)cyclohexyl)methyl)-N5-(3-(3-((2S,3S)-1-methyl-5-oxo-2-(pyridin-3-yl)pyrrolidine-3-carboxamido)propoxy)propyl)glutaramide], in test [1], the “pKd of Antibody” value turned out to be 8.8705. The EC50 in test [2] was 0.316 nM. In test [3], the “% Depletion of CCR2 expressing cells” value amounted to 79%.
In the same order, the values of `CN1C(=O)C[C@H](C(=O)NCCOCCOCCOCCC(=O)N[C@H]2CC[C@H](C(=O)N[C@@H]3C[C@H](NC(C)(C)C)CC[C@@H]3N3CC[C@H](Nc4ncnc5ccc(C(F)(F)F)cc45)C3=O)CC2)[C@H]1c1cccnc1` [Example 31, (2S,3S)-N-(2-(2-(2-(3-(((1S,4s)-4-(((1R,2S,5R)-5-(tert-Butylamino)-2-((S)-2-oxo-3-((6-(trifluoromethyl)quinazolin-4-yl)amino)pyrrolidin-1-yl)cyclohexyl)carbamoyl)cyclohexyl)amino)-3-oxopropoxy)ethoxy)ethoxy)ethyl)-1-methyl-5-oxo-2-(pyridin-3-yl)pyrrolidine-3-carboxamide] are 9.3015, 3.16 nM and 94.9%.
In the case of `CC(C)N(C)[C@@H]1CC[C@H](N2CC[C@H](Nc3ncnc4ccc(C(F)(F)F)cc34)C2=O)[C@H](NC(=O)[C@H]2CC[C@H](CNC(=O)CCOCCOCCOCCNC(=O)[C@H]3CC(=O)N(C)[C@@H]3c3cccnc3)CC2)C1` [Example 32, (2S,3S)-N-(1-((1S,4s)-4-(((1R,2S,5R)-5-(Isopropyl(methyl)amino)-2-((S)-2-oxo-3-((6-(trifluoromethyl)quinazolin-4-yl)amino)pyrrolidin-1-yl)cyclohexyl)carbamoyl)cyclohexyl)-3-oxo-6,9,12-trioxa-2-azatetradecan-14-yl)-1-methyl-5-oxo-2-(pyridin-3-yl)pyrrolidine-3-carboxamide], the “pKd of Antibody” value in test [1] is recorded as 9.1825. The EC50 in test [2] was 0.398 nM. Moreover, the “% Depletion of CCR2 expressing cells” value in test [3] is given as 83%.
In the case of `CC(C)N(C)[C@@H]1CC[C@H](N2CC[C@H](Nc3ncnc4ccc(C(F)(F)F)cc34)C2=O)[C@H](NC(=O)CCOCCNC(=O)CCOCCNC(=O)CCOCCNC(=O)[C@H]2CC(=O)N(C)[C@@H]2c2cccnc2)C1` [Example 46, (2S,3S)-N-(20-(((1R,2S,5R)-5-(Isopropyl(methyl)amino)-2-((S)-2-oxo-3-((6-(trifluoromethyl)quinazolin-4-yl)amino)pyrrolidin-1-yl)cyclohexyl)amino)-6,13,20-trioxo-3,10,17-trioxa-7,14-diazaicosyl)-1-methyl-5-oxo-2-(pyridin-3-yl)pyrrolidine-3-carboxamide], the “pKd of Antibody” value in test [1] is recorded as 9.074. Further, the EC50 in test [2] was 0.501 nM. In addition, the “% Depletion of CCR2 expressing cells” value in test [3] amounted to 96%.
As for `CC(C)N(C)[C@@H]1CC[C@H](N2CC[C@H](Nc3ncnc4ccc(C(F)(F)F)cc34)C2=O)[C@H](NC(=O)[C@H]2CC[C@@H](NC(=O)CCCC(=O)NCCCC(=O)NCCCNC(=O)[C@H]3CC(=O)N(C)[C@@H]3c3cccnc3)CC2)C1` [Example 56, N^1-((1S,4s)-4-(((1R,2S,5R)-5-(Isopropyl(methyl)amino)-2-((S)-2-oxo-3-((6-(trifluoromethyl)quinazolin-4-yl)amino)pyrrolidin-1-yl)cyclohexyl)carbamoyl)cyclohexyl)-N^5-(4-((3-((2S,3S)-1-methyl-5-oxo-2-(pyridin-3-yl)pyrrolidine-3-carboxamido)propyl)amino)-4-oxobutyl)glutaramide], the “pKd of Antibody” value in test [1] is given as 9.3185. Further, the “% Depletion of CCR2 expressing cells” value in test [3] is recorded as 97%.
Take `CC(C)N(C)[C@@H]1CC[C@H](N2CC[C@H](Nc3ncnc4ccc(C(F)(F)F)cc34)C2=O)[C@H](NC(=O)[C@H]2CC[C@@H](NC(=O)CNC(=O)CCOCCOCCNC(=O)[C@H]3CC(=O)N(C)[C@@H]3c3cccnc3)CC2)C1` [Example 83, (2S,3S)-N-(2-(2-(3-((2-(((1S,4s)-4-(((1R,2S,5R)-5-(Isopropyl(methyl)amino)-2-((S)-2-oxo-3-((6-(trifluoromethyl)quinazolin-4-yl)amino)pyrrolidin-1-yl)cyclohexyl)carbamoyl)cyclohexyl)amino)-2-oxoethyl)amino)-3-oxopropoxy)ethoxy)ethyl)-1-methyl-5-oxo-2-(pyridin-3-yl)pyrrolidine-3-carboxamide]: the “pKd of Antibody” value in test [1] was determined as 9.302. For the same compound, in test [3], the “% Depletion of CCR2 expressing cells” value came out at 67%.

(Values after patent publication US12521393B2, “Cytotoxicity targeting chimeras for CCR2-expressing cells” (GLAXOSMITHKLINE INTELLECTUAL PROPERTY DEVELOPMENT LIMITED, priority 2021, dated 2026).)
